# Laboratory results as given in ChEMBL document CHEMBL1136329, “A theoretical investigation on DPPH radical-scavenging mechanism of edaravone” (Bioorg Med Chem Lett, 2003).
# Experiment: Scavenging activity against DPPH
# Assay type: functional
compound,measurement,value
CC1=NN(c2ccccc2)C(=O)C1 [EDARAVONE],IC50,29.3 uM l-1
